Source: patent US9381245B2, “Methods for inhibiting osteolysis” (New York University, priority 2012, dated 2016)
Entries after “also recorded” stand apart in the source; their conditions may differ.

Key:
[1] = test system: bone marrow cells induced to differentiate into osteoclasts; test: Osteoclast differentiation of bone marrow cells with RANKL and M-CSF (TRAP+ osteoclasts); format: cell-based, mice
Protocol: (§1) A.) Bone marrow cells from WT and radiation chimeric netrin^−/− bone marrow mice were isolated and induced to differentiate into osteoclasts by incubation with RANKL and M-CSF. […] Cells from 5 different mice repeated in duplicate. […] A2A receptor stimulation reduces Unc5b, but not DCC, expression. Representative of 2 experiments. C. Bone mineral density (BMD) determined by Pixamouse small animal Dexa scanner. WT mice and Netrin1 KO mice are chimeras generated by infusion of either normal or netrin-1 deficient fetal liver into lethally irradiated congenic C57Black/6 mice. BMD was measured 18 weeks after transplant. Shown are the results of determinations on 5 mice in each group. […] Representative of 5 different mice with each treatment. E. Soft tissue from patients stained for semaphorin 4D (original magnification 800×). On the left is soft tissue obtained at the time of hip replacement (Representative of 14). […] On the right is tissue obtained at time of prosthesis revision (representative of 12).
Consistent with this observation it was shown that radiation chimeras with netrin-1^−/− replacement bone marrow have increased bone mineral density, as measured by Dexa scan (FIG. 4). […]

Unc5b = test: Western blot of Unc5b in RAW264.7 cells differentiating to osteoclasts; format: cell-based, murine; details: CGS21680 1 μM
Protocol: as §1

netrin-1 [2] = test: Netrin-1 expression in inflammatory infiltrate in wear particle-induced osteolysis; format: in vivo; details: wear particle-induced osteolysis in mice
Protocol: as §1
Staining for netrin-1 was carried out in collaboration with Dr. Kathryn Moore's laboratory, an internationally known expert on the role of this protein in macrophage function in atherosclerosis (van Gils, et al., Nat Immunol, 2012, 13(2): 136-43). […]

RANK = RANK staining of calvarium in murine model of wear particle-induced osteolysis; format: in vivo, mice; details: wear particles 4 weeks; saline containing CGS21680 1 μM
Protocol: (§2) A. Shown are representative sections (from 10 different mice) of mouse calvarium after formation of an air pouch alone (sham) or after formation of an air pouch and exposure to wear particles for 4 weeks in the presence of saline or saline containing CGS21680 (1 μM), as we have previously described (Mediero, et al., Sci Transl Med, 2012. 4(135): 135-65). Dark brown staining is positive. B. RNA was isolated from normal human osteoblasts (Alizarin Red+/Alkaline Phosphatase+ cells) after differentiation from normal marrow cells in the presence or absence of CGS21680 (1 μM). Real time RT-PCR was carried out for RANKL and normalized to GAPDH. Shown are mean (+/−SD) results of two different samples carried out in duplicate.

sema4D-expressing cells = test: Sema4D staining of calvarium in murine model of wear particle-induced osteolysis; format: in vivo; details: wear particle-treated mice; immunostaining
Protocol: A.) Total cell lysates from primary murine bone marrow cells alone (basal) or after osteoclast differentiation in the presence of saline, CGS21680 (1 μM) with/without ZM241385 (1 μM) were subject to Western Blot detection of sema4D. Shown is a representative experiment of 3. B.) RAW264.7 osteoclasts, infected with a lentiviral vector expressing either shRNA for the catalytic subunit of PKA, scrambled shRNA, or primary murine bone marrow cells were cultured in the presence of saline (Black line) or CGS21680 (1 μM, Red Line) with/without ZM241385 (1 μM, Blue Line) for the time periods indicated before harvest of the cells, collection of RNA and real time RTPCR. Results represent the means (±SEM) of 5 separate determinations. C. Calvarium from sham or wear particle-treated wild type (C57B1/6) mice or adenosine A2A receptor knockout mice (C57B1/6 background) were stained for sema4D. D. Soft tissue from patients stained for semaphorin 4D (original magnification 800×). On the left is soft tissue obtained at the time of joint replacement (Representative of 14). On the right is tissue obtained at time of prosthesis revision (representative of 12). […] In this model ultra high molecular weight polyethylene particles (UHMWPE) are injected into an air pouch overlying the calvaria and the area of bone resorption is measured. […]

osteoprotegerin = test: Osteoprotegerin staining of calvarium in murine model of wear particle-induced osteolysis; format: in vivo, mice; details: wear particles 4 weeks; saline containing CGS21680 1 μM
Protocol: as §2

semaphorin 4D = test: Sema4D expression (Western blot, real time RT-PCR) in osteoclasts from primary murine bone marrow cells and RAW264.7 cells; format: cell-based; details: CGS21680 1 μM; protein kinase A-dependent
Protocol: A.) Total cell lysates from primary murine bone marrow cells alone (basal) or after osteoclast differentiation in the presence of saline, CGS21680 (1 μM) with/without ZM241385 (1 μM) were subject to Western Blot detection of sema4D. Shown is a representative experiment of 3. B.) RAW264.7 osteoclasts, infected with a lentiviral vector expressing either shRNA for the catalytic subunit of PKA, scrambled shRNA, or primary murine bone marrow cells were cultured in the presence of saline (Black line) or CGS21680 (1 μM, Red Line) with/without ZM241385 (1 μM, Blue Line) for the time periods indicated before harvest of the cells, collection of RNA and real time RTPCR. Results represent the means (±SEM) of 5 separate determinations. C. Calvarium from sham or wear particle-treated wild type (C57B1/6) mice or adenosine A2A receptor knockout mice (C57B1/6 background) were stained for sema4D. D. Soft tissue from patients stained for semaphorin 4D (original magnification 800×). On the left is soft tissue obtained at the time of joint replacement (Representative of 14). On the right is tissue obtained at time of prosthesis revision (representative of 12).

RANKL [3] = test: RANKL staining of calvarium in murine model of wear particle-induced osteolysis; format: in vivo, mice; details: wear particles 4 weeks; saline containing CGS21680 1 μM
Protocol: as §2

netrin-1 [4] = test: Western blot of netrin-1 in supernate of RAW264.7 cells differentiating to osteoclasts; format: cell-based, murine; details: CGS21680 1 μM, RANKL and M-CSF
Protocol: as §1

RANKL [5] = test: RANKL real time RT-PCR in normal human osteoblasts differentiated from marrow cells; format: cell-based; details: CGS21680 1 μM; normalized to GAPDH
Protocol: as §2

[6] = test system: wear particle-induced osteolysis; test: New bone formation at sites of wear particle-induced osteolysis (Xenolight Rediject Bone Probe 680, IVIS); format: in vivo, mice; details: daily injections of CGS21680 into air pouch over calvarium
Protocol: Mice (C57B1/6) underwent formation of an air pouch over the calvarium and then exposed to saline (sham) or wear particles […] followed by daily injections of 200 μl of saline or CGS21680, as previously described. Animals were injected with Xenolight Rediject Bone Probe 680 (2 nmoles in 150 ul) followed by scanning in the IVIS apparatus. The intensity of staining is indicated by increasing yellow coloration. The fluorescence is detectable without change for 3-4 days and persists for as long as 2 weeks although all of these scans were taken on the day of injection. Shown are representative scans of ⅕ animals per group. The intensity of fluorescence was quantitated in a specific area of interest using software provided with the apparatus and the mean (±SEM) was calculated for 5 animals in each. In these experiments osteolysis will be monitored as porosity of the calvaria, measured by microCT, as has been previously described (Mediero, et al., Sci Transl Med, 2012. 4(135): 135-65). […] In addition, sema4D, netrin-1, GM-CSF, M-CSF, IP-10, MCP-1, IL-1, TNF, IL-6, IL-10, osteoprotegerin, osteocalcin and RANKL in supernates of cultured calvaria will be quantified by luminex assay, as has been previously described (Mediero, et al., Sci Transl Med, 2012. 4(135): 135-65). […]

NFκB p50/p105 = NFκB p50/p105 nuclear translocation in RAW264.7 cells with RANKL (Western blot); format: cell-based, murine; details: CGS21680 1 μM; 30 min with RANKL; PKA-ERK1/2 mechanism
Protocol: RAW264.7 cells were infected with lentiviral constructs expressing shRNA for the catalytic subunit of PKA or a scrambled control. Cells were incubated for 30 min in the presence of RANKL alone, plus CGS21680 (1 μM, CGS) or plus CGS and ZM241385 (1 μM, C+Z) before lysis, separation of nuclear and cytosolic fractions and analysis by Western Blot. Shown are representative Western Blots. Results in the bar graphs are expressed as the means of four independent experiments analyzed densitometrically and normalized to actin. Results were analyzed by two way ANOVA and Bonferroni post-hoc testing.

Compound | reversal of the A2A receptor agonist (CGS21680) reduction of osteoclast differentiation ([1]; WT cells with CGS21680 1 μM, netrin-1 250 ng/ml) | Unc5b expression (Unc5b) | netrin-1 expression in the inflammatory infiltrate (netrin-1 [2]) | RANK expression in calvarium (RANK) | number of sema4D-expressing cells in the calvaria (sema4D-expressing cells) | osteoprotegerin expression in calvarium (osteoprotegerin) | osteoclast differentiation in WT cells ([1]; CGS21680 1 μM, RANKL and M-CSF, WT bone marrow cells) | semaphorin 4D expression by osteoclasts (semaphorin 4D) | RANKL expression in calvarium (RANKL [3]) | netrin-1 in the supernate of RAW264.7 cells (netrin-1 [4]) | RANKL mRNA in differentiating osteoblasts (RANKL [5]) | new bone formation at sites of wear particle-induced osteolysis [6] | NFκB p50/p105 nuclear translocation (NFκB p50/p105)
Nc1nc(NCCc2ccc(O)cc2)nc2nc(-c3ccco3)nn12 [ZM241385] | reversed | – | – | – | – | – | – | – | – | – | – | – | –
CCNC(=O)[C@H]1O[C@@H](n2cnc3c(N)nc(NCCc4ccc(CCC(=O)O)cc4)nc32)[C@H](O)[C@@H]1O [CGS21680] | – | reduces Unc5b | inhibits its expression | diminishes RANK | dramatically decreased; also recorded: diminishes recruitment of semaphorin 4D positive cells | increases osteoprotegerin expression | reduces osteoclast differentiation | inhibits | diminishes RANK, RANKL | reduces netrin-1 | diminishes RANKL mRNA | restored | inhibits
